pIC50: −log10 of the molar value.
Tests used:
[1] = biological target: T1, cholesterol esterase (EC 3.1.1.13) (Bos taurus, UniProt P30122); test: in vitro inhibition of cholesteryl ester formation by cholesterol esterase; type: biochemical, bovine; conditions: for pIC50: 37° C., cholesterol and oleic acid, cholesterol esterase from bovine pancreas, read-out: IC50 (concentration that inhibits one-half of the ester formation)
T1 construct: purchased Sigma Chemical Company, St. Louis, Mo., USA C-1892; host or cells: bovine pancreas
Procedure: The ability of the compounds of this invention to inhibit the formation of cholesteryl esters and thereby interfere with and prevent assimilation of cholesterol into the lymphatic system and ultimately the blood stream was established by incubating the compounds at 37° C. with a mixture of cholesterol and oleic acid in the presence of buffered cholesterol esterase [(EC 3.1.1.13) Sigma Chemical Company, St. Louis, Mo., USA, No. C-1892, from bovine pancreas] and measuring the amount of ester formed, according to the procedure of Field, J. of Lipid Research, 25 389 (1984).

[2] = test system: cholesterol absorption; test: in vivo cholesterol absorption study, serum radioactivity after oral [4-^14C] cholesterol; conditions: Rattus norvegicus, 6 h, normal rats, serum radioactivity at six hours; for ED50: read-out: ED50 (effective dose inhibiting fifty percent of the cholesterol absorption of the control animals)
Procedure: The in vivo cholesterol absorption studies were conducted in normal rats by oral administration of the compound being tested in propylene glycol and olive oil followed by oral administration of [4-^14 C] cholesterol in propylene glycol and olive oil, otherwise following the procedure of Cayen et al., J. Lipid Res. 20 162 (1979). The serum radioactivity was measured at six hours after dosing. The results of this study are reported in the following Table, where available, as percent decrease compared to control and in terms of the effective dose (ED50) inhibiting fifty-percent of the absorption of the control animals.

[3] = vs control, read-out: Decrease in [^14C] Cholesterol Absorption

T1 sequence (P30122 19-597): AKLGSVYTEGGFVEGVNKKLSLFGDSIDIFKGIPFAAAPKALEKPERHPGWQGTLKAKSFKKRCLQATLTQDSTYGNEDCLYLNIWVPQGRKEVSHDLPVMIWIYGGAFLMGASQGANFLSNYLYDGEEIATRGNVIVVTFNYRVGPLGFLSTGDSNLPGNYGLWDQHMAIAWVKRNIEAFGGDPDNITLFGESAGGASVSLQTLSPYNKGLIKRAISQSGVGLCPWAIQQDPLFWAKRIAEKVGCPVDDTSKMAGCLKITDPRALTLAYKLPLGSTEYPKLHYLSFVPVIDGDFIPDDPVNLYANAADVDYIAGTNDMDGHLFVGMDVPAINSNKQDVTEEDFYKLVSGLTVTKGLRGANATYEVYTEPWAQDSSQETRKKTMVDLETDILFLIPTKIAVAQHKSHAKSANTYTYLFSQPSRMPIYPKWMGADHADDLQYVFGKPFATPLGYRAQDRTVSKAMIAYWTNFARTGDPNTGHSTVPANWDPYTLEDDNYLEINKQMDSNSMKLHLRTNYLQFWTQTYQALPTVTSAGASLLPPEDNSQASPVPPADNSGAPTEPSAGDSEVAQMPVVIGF

Row | SMILES | pIC50 [1] | also measured
1 | O=C(Oc1ccc(Oc2ccccc2)cc1)N1CCSCC1 [Example 10, 4-Thiomorpholinecarboxylic acid 4-phenoxyphenyl ester] | 5.96 | inhibition in vivo at 65 mg/kg [2, 3]: 74%; ED50 [2]: 14 mg/kg
2 | O=C(NC12CC3CC(CC(C3)C1)C2)Oc1ccc(Oc2ccccc2)cc1 [Example 15] | 4.76 | inhibition in vivo at 100 mg/kg [2, 3]: 76%
3 | O=C(NC1CCCCC1)Oc1ccc(Oc2ccccc2)cc1 [Example 13, Cyclohexylcarbamic acid 4-phenoxyphenyl ester] | 5.17 | –
4 | CCCCNC(=O)Oc1ccc(Oc2ccccc2)cc1 [Example 1, Butylcarbamic acid 4-phenoxyphenyl ester] | 5.70 | inhibition in vivo at 100 mg/kg [2, 3]: 82%; ED50 [2]: 24 mg/kg
5 | CC(C)CC(C)NC(=O)Oc1ccc(Oc2ccccc2)cc1 (stereo not drawn) [Example 18, (1,3-Dimethylbutyl)carbamic acid 4phenoxyphenyl ester] | 4.78 | –
6 | CC(C)C1CCN(C(=O)Oc2ccc(Oc3ccccc3)cc2)CC1 [Example 51, 4-(1-Methylethyl)-1-piperidinecarboxylic acid 4-phenoxyphenyl ester] | 6.60 | inhibition in vivo at 20 mg/kg ([2]; 20 mg/kg, vs control, read-out: Decrease in [^14C] Cholesterol Absorption): 66%
7 | CCCCCCN(CCCCCC)CC1CCN(C(=O)Oc2ccc(Oc3ccccc3)cc2)CC1 [Example 62, 4-(Dihexylaminomethyl)-1-piperidinecarboxylic acid 4-phenoxyphenyl ester] | 4.82 | –
8 | O=C(Oc1ccc(Oc2ccccc2)cc1)N1CCOCC1 [Example 7, 4-Morpholinecarboxylic acid 4-phenoxyphenol ester] | 4.07 | –
9 | CCCCNC(=O)Oc1ccc(Oc2ccccc2)cc1C(=O)OC [Example 50] | 5.29 | –
10 | CC(C)(C)CC(C)(C)NC(=O)Oc1ccc(Oc2ccccc2)cc1 [Example 16, (1,1,3,3-Tetramethylbutyl)carbamic acid 4-phenoxyphenyl ester] | < 4.00 | –
11 | CC1CCN(C(=O)Oc2ccc(Oc3ccccc3)cc2C(=O)O)CC1 [Example 55] | 4.50 | inhibition in vivo at 50 mg/kg [2, 3]: 16%
12 | CCCCNC(=O)Oc1ccc(Oc2ccc(C)cc2)cc1 [Example 19, Butylcarbamic acid 4-(4-methylphenoxy)phenyl ester] | 5.27 | –
13 | CCCCNC(=O)Oc1ccc(Oc2ccc(Cl)cc2)cc1 [Example 21, Butylcarbamic acid 4-(4-chlorophenoxy)phenyl ester] | 5.21 | –
14 | CC(C)CCCC(C)NC(=O)Oc1ccc(Oc2ccccc2)cc1F (stereo not drawn) [Example 37, (1,5-Dimethylhexyl)carbamic acid 2-fluoro-4-phenoxyphenyl ester] | 5.85 | –
15 | O=C(Oc1ccc(Oc2ccccc2)cc1)N1CCC(CI)CC1 [Example 59, 4-(Iodomethyl)-1-piperidinecarboxylic acid 4-phenoxyphenyl ester] | 6.57 | –
16 | CC1CCCN(C(=O)Oc2ccc(Oc3ccccc3)cc2)C1 (stereo not drawn) [Example 39, 3-Methyl-1-piperidinecarboxylic acid 4-phenoxyphenyl ester] | 6.06 | inhibition in vivo at 50 mg/kg [2, 3]: 73%
17 | O=C(Oc1ccc(Oc2ccccc2)cc1)N1CCC(c2ccccc2)CC1 [Example 5, 4-Phenyl1-piperidinecarboxylic acid 4-phenoxyphenl ester] | 4.48 | –
18 | O=C(NCC1CCCCC1)Oc1ccc(Oc2ccccc2)cc1 [Example 14, Cyclohexylmethylcarbamic acid 4phenoxyphenyl ester] | 5.03 | –
19 | CCOC(=O)C1CCN(C(=O)Oc2ccc(Oc3ccccc3)cc2)CC1 [Example 43, 1,4-Piperidinedicarboxylic acid 4-ethyl-1-(4phenoxyphenyl) diester] | 5.35 | inhibition in vivo at 50 mg/kg [2, 3]: 60%
20 | CCCCNC(=O)Oc1c(C)cc(Oc2ccc(C)cc2)cc1C [Example 22, Butylcarbamic acid 2,6-dimethyl-4-(4-methylphenoxy)phenyl ester] | – | inhibition at 30 µM ([1]; at 30 μM): 20%
21 | O=C(Oc1ccc(Oc2ccccc2)cc1)N1CCC(CO)CC1 [Example 56, 4-(Hydroxymethyl)-1-piperidinecarboxylic acid 4-phenoxyphenyl ester] | 5.68 | –
22 | CC(C)CCCC(C)NC(=O)Oc1ccc(Oc2ccccc2)cc1 (stereo not drawn) [Example 4, (1,5-Dimethylhexyl)carbamic acid 4-phenoxyphenyl ester] | 5.30 | inhibition in vivo at 100 mg/kg [2, 3]: 89%; ED50 [2]: 13 mg/kg

Row | SMILES | pIC50 [1] | also measured
23 | O=C(Oc1ccc(Oc2ccccc2)cc1)N1CCCC1 [Example 12, 1-Pyrrolidinecarboxylic acid 4-phenoxyphenyl ester] | 6.52 | inhibition in vivo at 65 mg/kg [2, 3]: 43%
24 | Cc1ccc(Oc2ccc(OC(=O)N3CCC(C)CC3)cc2)cc1 [Example 23, 4-Methyl-1-piperidinecarboxylic acid 4-(4-methylphenoxy)phenyl ester] | 6.57 | inhibition in vivo at 65 mg/kg [2, 3]: 43%
25 | CCCCNC(=O)Oc1ccc(Oc2ccccc2)cc1F [Example 28, Butylcarbamic acid 2-fluoro-4-phenoxyphenyl ester] | 5.72 | –
26 | CCCCNC(=O)Oc1ccc(Oc2ccc(OC)cc2)cc1 [Example 29, Butylcarbamic acid 4-(4-methoxyphenoxy)phenyl ester] | 4.89 | –
27 | CCN(CC)CC1CCN(C(=O)Oc2ccc(Oc3ccccc3)cc2)CC1 [Example 60] | < 4.00 | inhibition in vivo at 50 mg/kg [2, 3]: 49%
28 | CC1CCN(C(=O)Oc2ccc(Oc3ccc(Cl)cc3)cc2)CC1 [Example 25, 4-Methyl-1-piperidinecarboxylic acid 4-(4-chlorophenoxy)phenyl ester] | 6.77 | inhibition in vivo at 65 mg/kg [2, 3]: 61%
29 | CCCCCCCCCCCCOC(=O)C1CCN(C(=O)Oc2ccc(Oc3ccccc3)cc2)CC1 [Example 53, 1,4-Piperidinedicarboxylic acid 4-dodecyl 1-(4-phenoxyphenyl) diester] | < 4.00 | inhibition in vivo at 100 mg/kg [2, 3]: 44%
30 | COc1ccc(Oc2ccc(OC(=O)NC(C)CCCC(C)C)cc2)cc1 (stereo not drawn) [Example 31, (1,5-Dimethylhexyl)carbamic acid 4-(4-methoxyphenoxy)phenyl ester] | 4.59 | –
31 | CCCCCCNC(=O)Oc1ccc(Oc2ccccc2)cc1 [Example 36, Hexylcarbamic acid 4-phenoxyphenyl ester] | 5.77 | –
32 | CCCCCCCC/C=C\CCCCCCCCNC(=O)Oc1ccc(Oc2ccccc2)cc1 [Example 67, (Z)-9-Octadecenylcarbamic acid 4-phenoxyphenyl ester] | 3.20 | inhibition in vivo at 100 mg/kg [2, 3]: 49%
33 | O=C(Oc1ccc(Oc2ccccc2)cc1)N1CCCCCC1 [Example 40, Hexahydro-1H-azepine-1-carboxylic acid 4-phenoxyphenyl ester] | 4.72 | –
34 | CC(=O)OC1CCN(C(=O)Oc2ccc(Oc3ccccc3)cc2)CC1 [Example 48, 4-(Acetyloxy)-1-piperidinecarboxylic acid 4-phenoxyphenyl ester] | 6.27 | inhibition in vivo at 50 mg/kg [2, 3]: 41%
35 | CC[N+](CC)(CC)CC1CCN(C(=O)Oc2ccc(Oc3ccccc3)cc2)CC1 [Example 61, Triethyl 1-[(4-phenoxyphenoxy)carbonyl]-4-piperidinemethanaminium iodide] | < 4.00 | inhibition in vivo at 50 mg/kg [2, 3]: 33%
36 | O=C(NCCCCc1ccccc1)Oc1ccc(Oc2ccccc2)cc1 [Example 3, (4-Phenylbutyl)carbamic acid 4-phenoxyphenyl ester] | 4.80 | inhibition in vivo at 10 mg/kg ([2]; 10 mg/kg, vs control, read-out: Decrease in [^14C] Cholesterol Absorption): 70%; ED50 [2]: 6 mg/kg
37 | CCCCC(CC)NC(=O)Oc1ccc(Oc2ccccc2)cc1 (stereo not drawn) [Example 17, (1-Ethylpentyl)carbamic acid 4-phenoxyphenyl ester] | 4.88 | –
38 | CC1CCN(C(=O)Oc2ccc(Oc3ccccc3)cc2)CC1 [Example 8, 4-Methyl-1-piperidinecarboxylic acid 4-phenoxyphenyl ester] | – | inhibition in vivo at 65 mg/kg [2, 3]: 90%; ED50 [2]: 10 mg/kg
39 | CCCCNC(=O)Oc1ccc(Oc2ccc(C(C)(C)C)cc2)cc1 [Example 32, Butylcarbamic acid 4-[4-(1,1-dimethylethyl)phenoxy]phenyl ester] | < 4.00 | –
40 | CCCCCC(C)NC(=O)Oc1ccc(Oc2ccccc2)cc1 (stereo not drawn) [Example 26] | 5.54 | –
41 | O=C(Oc1ccc(Oc2ccccc2)cc1)N1CCN(c2ccccc2)CC1 [Example 6, 4-Phenyl-1-piperazinecarboxylic acid 4-phenoxyphenyl ester] | 4.26 | –
42 | CC(C)CCCC(C)NC(=O)Oc1ccc(Oc2ccc(Cl)cc2)cc1 (stereo not drawn) [Example 27, (1,5-Dimethylhexyl)carbamic acid 4-(4-chlorophenoxy)phenyl ester] | 5.15 | –
43 | Cc1ccc(Oc2ccc(OC(=O)NC(C)CCCC(C)C)cc2)cc1 (stereo not drawn) [Example 24, (1,5-Dimethylhexyl)carbamic acid 4-(4-methylphenoxy)phenyl ester] | 5.25 | –
44 | CCCCCCCCNC(=O)Oc1ccc(Oc2ccccc2)cc1 [Example 11, Octylcarbamic acid 4phenoxyphenyl ester] | 4.70 | –
